Positions of bridges follow the written chain, without caps; N, C: chain ends. Non-standard residues stand in square brackets, D forms with d. Residues, ends and D or L forms follow the SMILES beside them. Groups on a side chain read outwards from the residue. Chains are numbered I, II in the order given. *: point of attachment. X2 = OC[C@H]1O[C@@H](O[C@H]2[C@H](O)[C@@H](O)[C@H](*)O[C@@H]2CO)[C@H](O)[C@@H](O)[C@H]1O; X3 = OCC1OC(OC2C(CO)OC(*)C(O)C2O)C(O)C(O)C1O; 2Nal = N[C@@H](Cc1ccc2ccccc2c1)C(=O)O; dCit = NC(=O)NCCC[C@@H](N)C(=O)O; dNMeOrn = CN[C@H](CCCN)C(=O)O; d(hCys) = N[C@H](CCS)C(=O)O; HYNIC = NNc1ccc(C(=O)*)cn1; Mercaptoacetyl = O=C(CS)*; X4 = OCC1OC(*)C(O)C(O)C1O; 4Abz = Nc1ccc(C(=O)O)cc1; dDap = NC[C@@H](N)C(=O)O
Tests used:
CXCR4 [1] = target: T1, CXCR4 (Homo sapiens, UniProt P61073); experiment: Determination of inverse IC50 (invIC50): radiolabeled peptide displaced by Fc-131 on Jurkat cells
T1 sequence (P61073 whole entry): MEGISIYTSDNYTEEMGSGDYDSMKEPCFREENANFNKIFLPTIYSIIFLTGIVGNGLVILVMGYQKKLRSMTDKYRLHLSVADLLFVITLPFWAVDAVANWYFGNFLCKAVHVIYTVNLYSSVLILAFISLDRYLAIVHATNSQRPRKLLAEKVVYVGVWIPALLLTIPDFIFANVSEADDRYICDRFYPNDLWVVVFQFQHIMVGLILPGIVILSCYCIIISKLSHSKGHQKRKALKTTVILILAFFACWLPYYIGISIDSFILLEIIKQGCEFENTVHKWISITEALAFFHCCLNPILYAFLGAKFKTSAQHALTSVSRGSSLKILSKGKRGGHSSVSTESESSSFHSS
Description: For in vitro experiments, cells were counted in a hemocytometer using trypan blue as contrast agent. The cell suspension was centrifuged, and the pellet resuspended in HBSS (+1 wt % BSA) to a concentration of 2 mio cells/mL. 8×3 polystyrene tubes were loaded with 25 μL of the standard ligand ^125I-Fc-131 (see 4.1, 1.00 nM in HBSS) and 25 μL of the ligand to investigate in the respective concentration (10^−4-10^−10 M, n=3 for each concentration). 200 μL of cell suspension (400.000 cells per well) were added to obtain a final peptide concentration range of 10^−5-10^−11 M. The tubes were cooled for 2 h at 8° C. to prevent internalization. The experiment was stopped by removal of the supernatant. 200 μL HBSS were added onto the cells, the suspension centrifuged, and the supernatant pooled with the respective first fractions. This step was repeated once more before the tubes containing the supernatants and the ones containing the cell pellets were subjected to activity measurement in the γ-counter.
For the determination of inverse IC50 (invIC50) values the protocol for the determination of regular IC50 values was resumed with minor changes. The peptide under investigation was radioactively labeled and a stock solution was prepared in HBSS (2.00 nM). A concentration gradient of the standard ligand Fc-131 was prepared in HBSS (10^−4-10^−10 M). A cell tube was then containing 25 μL of the radioactive peptide solution, 25 μL of the respective Fc-131 solution and 200 μL cell suspension (400.000 cells). The experiment was conducted as described above.

[2] = test system: CXCR4-expressing Chem_1 cells; experiment: Determination of internalization, dual tracer with 125I-Fc-131; assay type: cell-based; conditions: for Cell-bound [%] / Internalized [%]: of total cellular activity
Summary of the method: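 Chem_1 cells grown in DMEM-F12 with 10% FBS at 37 °C; wells (n=3 per time point) received medium or AMD3100 (1 mM stock) to block receptors. Unbound, surface-bound and NaOH-lysed internalized fractions were γ-counted; data corrected for non-specific internalization and referred to standard ligand specific internalization.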

[3] = Biodistribution in Jurkat tumor-bearing CB-17 SCID mice; assay type: in vivo; conditions: female, CB-17 SCID, mouse, in vivo, iv, total radioactivity
Summary of the method: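 CB17-SCID mice bore subcutaneous Jurkat xenografts (2-3×10^7 cells in Matrigel, shoulder), used at 5-8 mm tumor diameter. About 0.5-20 MBq (0.02-0.20 nmol) of 125I-, 177Lu-, 99mTc-, 18F- or 68Ga-labeled ligand given by tail vein; organs weighed and γ-counted after set times.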

[4] = Octanol/PBS partition coefficient (logD7.4); assay type: physicochemical; conditions: n-octanol/PBS pH 7.4, radiolabeled compound
Description: The tubes were vortexed at maximum speed for 3 min to ensure equilibrium before centrifugation at 15.000×g for 5 min on a Biofuge 15 from Heraeus Holding GmbH (Osterode, Germany). An aliquot of 100 μL of each fraction was measured in the γ-counter and the log D7.4 calculated as follows: […]

CXCR4 [5] = target: T1, CXCR4; experiment: Determination of IC50: competition with 125I-Fc-131 on CXCR4-positive Jurkat cells; assay type: binding; parameters: CXCR4-positive Jurkat T lymphocyte cells were grown in Gibco's RPMI 1640 GlutaMAX medium; endogenous in cells; host or cells: Jurkat T lymphocyte cells (whole cells in suspension, 400.000 per tube);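 further: test compound at 10^−5 to 10^−11 M competed for 2 h at 8 °C with the radioligand on 400,000 cells per well, bound versus free activity measured by γ-counting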

SMILES	IC50 (CXCR4 [1]) [nM]	Internalized in relation to 125I-Fc-131 [%] ([2]; 30 min)	Cell-bound [%] ([2]; 30 min)	Internalized [%] ([2]; 30 min)	Internalization [% Fc-131] ([2]; 90 min)	Internalized in relation to 125I-Fc-131 [%] ([2]; 90 min)	Cell-bound [%] ([2]; 90 min)	tissue uptake at 1 h ([3]; % iD/g Blood) [%ID/g]	tissue uptake at 1 h ([3]; % iD/g Bone) [%ID/g]	tissue uptake at 1 h ([3]; % iD/g Heart) [%ID/g]	tissue uptake at 1 h ([3]; % iD/g Intestine) [%ID/g]	tissue uptake at 1 h ([3]; % iD/g Kidney) [%ID/g]	tissue uptake at 1 h ([3]; % iD/g Liver) [%ID/g]	tissue uptake at 1 h ([3]; % iD/g Lung) [%ID/g]	tissue uptake at 1 h ([3]; % iD/g Muscle) [%ID/g]	tissue uptake at 1 h ([3]; % iD/g Pancreas) [%ID/g]	tissue uptake at 1 h ([3]; % iD/g Spleen) [%ID/g]	tissue uptake at 1 h ([3]; % iD/g Stomach) [%ID/g]	tissue uptake at 1 h ([3]; % iD/g Tumor) [%ID/g]	logD7.4 [4]	other results
C[C@@H](NC(=O)[C@@H](CCCNC(=N)N)NC(=O)[C@@H](CN)NC(=O)[C@@H](CCSC1OC(CO)C(O)C(O)C1O)NC(=O)[C@@H](CCSC1OC(CO)C(O)C(O)C1O)NC(=O)[C@@H](CCSC1OC(CO)C(O)C(O)C1O)NC(=O)CS)C(=O)Nc1ccc(C(=O)NCCC[C@@H]2C(=O)N[C@@H](CCCNC(=N)N)C(=O)N[C@@H](Cc3ccc4ccccc4c3)C(=O)NCC(=O)N[C@H](Cc3ccc(O)cc3)C(=O)N2C)cc1 (stereo partly shown) [Tc-CXCR4-9] (I: Mercaptoacetyl-[d(hCys)](X4)[d(hCys)](X4)[d(hCys)](X4)[dDap][dR][dA][4Abz] / II: cyclo([2Nal]G[dY][dNMeOrn]R); amide I:C-II:4)	3.5 ± 0.65	86.4 ± 9.62	3.69 ± 0.56	7.00 ± 0.74	103 (90 min) % Fc-131	103 ± 6.56	3.69 ± 0.49	1.42	0.47	0.87	1.5	14.8	3.97	2.4	0.24	0.5	1.24	3.51	5.92	−2.56 ± 0.03 (6)	Internalized [%] ([2]; 90 min): 12.5 ± 0.67%
C[C@@H](NC(=O)[C@@H](CCCNC(=N)N)NC(=O)[C@@H](CN)NC(=O)[C@@H](CO)NC(=O)[C@@H](CCS[C@@H]1O[C@H](CO)[C@@H](O[C@@H]2O[C@H](CO)[C@H](O)[C@H](O)[C@H]2O)[C@H](O)[C@H]1O)NC(=O)[C@@H](CO)NC(=O)CS)C(=O)Nc1ccc(C(=O)NCCC[C@@H]2C(=O)N[C@@H](CCCNC(=N)N)C(=O)N[C@@H](Cc3ccc4ccccc4c3)C(=O)NCC(=O)N[C@H](Cc3ccc(O)cc3)C(=O)N2C)cc1 [Tc-CXCR4-11] (I: Mercaptoacetyl-[dS][d(hCys)](X2)[dS][dDap][dR][dA][4Abz] / II: cyclo([2Nal]G[dY][dNMeOrn]R); amide I:C-II:4)	2.05 ± 0.95	178 ± 26.2	3.74 ± 0.33	6.98 ± 0.78	–	–	–	1.36	0.71	0.95	0.72	29	5.94	2.85	0.28	0.48	2.31	1.16	6.71	−2.94 ± 0.02 (8)	Internalized in relation to 125I-Fc-131 [%] ([2]; 15 min): 71.9 ± 11.4%; Cell-bound [%] ([2]; 15 min): 1.79 ± 0.36%; Internalized [%] ([2]; 15 min): 3.16 ± 0.46%; Internalized in relation to 125I-Fc-131 [%] ([2]; 60 min): 145 ± 19.8%; Cell-bound [%] ([2]; 60 min): 7.02 ± 0.06%; Internalized [%] ([2]; 60 min): 7.10 ± 0.84%; Internalization [% Fc-131] ([2]; 120 min): 221 (120 min) % Fc-131; Internalized in relation to 125I-Fc-131 [%] ([2]; 120 min): 221 ± 23.4%; Cell-bound [%] ([2]; 120 min): 4.25 ± 0.67%; Internalized [%] ([2]; 120 min): 10.8 ± 1.13%
C[C@@H](NC(=O)[C@@H](CCCNC(=N)N)NC(=O)[C@@H](CN)NC(=O)[C@@H](CO)NC(=O)[C@@H](CO)NC(=O)[C@@H](CO)NC(=O)CS)C(=O)Nc1ccc(C(=O)NCCC[C@@H]2C(=O)N[C@@H](CCCNC(=N)N)C(=O)N[C@@H](Cc3ccc4ccccc4c3)C(=O)NCC(=O)N[C@H](Cc3ccc(O)cc3)C(=O)N2C)cc1 [Tc-CXCR4-6] (I: Mercaptoacetyl-[dS][dS][dS][dDap][dR][dA][4Abz] / II: cyclo([dY][dNMeOrn]R[2Nal]G); amide I:C-II:2)	3.67 ± 0.77	470 ± 17.4	6.56 ± 0.31	17.4 ± 0.40	525 (90 min) % Fc-131	526 ± 29.0	6.90 ± 0.29	–	–	–	–	–	–	–	–	–	–	–	–	−1.54 ± 0.02 (6)	IC50 (CXCR4 [5]): 4.97 ± 1.34 nM; Internalized [%] ([2]; 90 min): 27.1 ± 0.50%
C[C@@H](NC(=O)[C@@H](CCCNC(=N)N)NC(=O)[C@@H](CN)NC(=O)[C@@H](CCCNC(N)=O)NC(=O)[C@@H](CCSC1OC(CO)C(OC2OC(CO)C(O)C(O)C2O)C(O)C1O)NC(=O)[C@@H](CCCNC(N)=O)NC(=O)CS)C(=O)Nc1ccc(C(=O)NCCC[C@@H]2C(=O)N[C@@H](CCCNC(=N)N)C(=O)N[C@@H](Cc3ccc4ccccc4c3)C(=O)NCC(=O)N[C@H](Cc3ccc(O)cc3)C(=O)N2C)cc1 (stereo partly shown) [Tc-CXCR4-12] (I: Mercaptoacetyl-[dCit][d(hCys)](X3)[dCit][dDap][dR][dA][4Abz] / II: cyclo([2Nal]G[dY][dNMeOrn]R); amide I:C-II:4)	4.82 ± 1.36	284 ± 92.3	8.56 ± 0.66	9.64 ± 1.31	–	–	–	1.74	0.95	1.14	1.25	35	11	3.96	0.34	0.8	4.72	2.03	7.39	−2.92 ± 0.06 (8)	Internalized in relation to 125I-Fc-131 [%] ([2]; 15 min): 192 ± 38.1%; Cell-bound [%] ([2]; 15 min): 3.77 ± 0.83%; Internalized [%] ([2]; 15 min): 3.79 ± 0.69%; Internalized in relation to 125I-Fc-131 [%] ([2]; 60 min): 395 ± 72.2%; Cell-bound [%] ([2]; 60 min): 14.1 ± 0.71%; Internalized [%] ([2]; 60 min): 11.6 ± 2.01%; Internalization [% Fc-131] ([2]; 120 min): 473 (120 min) % Fc-131; Internalized in relation to 125I-Fc-131 [%] ([2]; 120 min): 473 ± 41.9%; Cell-bound [%] ([2]; 120 min): 7.42 ± 2.12%; Internalized [%] ([2]; 120 min): 18.1 ± 0.85%
C[C@@H](NC(=O)[C@@H](CCCNC(=N)N)NC(=O)[C@@H](CN)NC(=O)c1ccc(NN)nc1)C(=O)Nc1ccc(C(=O)NCCC[C@@H]2C(=O)N[C@@H](CCCNC(=N)N)C(=O)N[C@@H](Cc3ccc4ccccc4c3)C(=O)NCC(=O)N[C@H](Cc3ccc(O)cc3)C(=O)N2C)cc1 [Tc-CXCR4-13] (cyclo([dY][dNMeOrn]([4Abz-dA-dR-dDap-HYNIC])R[2Nal]G))	4.16 ± 1.5	434 ± 18.8	7.56 ± 0.38	18.0 ± 0.27	503 (90 min) % Fc-131	503 ± 16.2	7.65 ± 0.47	1.56	0.81	0.78	0.57	29.5	2.62	1.94	1.52	0.36	2.43	1.98	8.02	−2.74 ± 0.03 (5)	Internalized [%] ([2]; 90 min): 25.5 ± 0.57%

Source: US20250288704A1, “CXCR4-LIGANDS FOR DIAGNOSTIC AND THERAPEUTIC USE AND PRECURSORS THEREOF” (priority 2021, published 2025)
